ChEMBL document CHEMBL3301361, “Experimental in vitro DMPK and physicochemical data on a set of publicly disclosed compounds”

Assay: physchem
Conditions: octan-1-ol/water, pH 7.4, LogD7.4

logD	SMILES
3.23	O=S(=O)(Cc1cc(Cl)cc(Cl)c1)NCC(c1ccccc1)N1CCCCCC1 (configuration not stated)
3.21	O=S(=O)(NCC(c1ccccc1)N1CCCCCC1)c1ccc(Br)cc1 (configuration not stated)
3.29	Cc1cc2n[nH]c(=O)n2c2cc(-c3ccc[nH]3)ccc12
3.31	COc1ccc(-c2c(C)c3ccc(OC)cc3oc2=O)cc1
3.22	Cc1cc(Cl)ccc1N1CCN(C(=O)COCc2ccncc2)CC1
3.29	Nc1cccc(C(=O)NCC23CC4CC(CC(C4)C2)C3)c1Cl
3.3	O=C(O)c1ccc2cccc(O)c2n1
3.2	Fc1cccc(C(COCc2cc(C(F)(F)F)cc(C(F)(F)F)c2)N2CCNCC2)c1 (configuration not stated)
3.3	c1ccc(-c2ccc(COc3ccc4c(c3)CCC(CCN3CCCCC3)C4)cc2)cc1 (configuration not stated)
3.29	O=c1c2cnn(-c3ccccc3)c2nc(-c2ccco2)n1-c1ccccc1
3.19	O=C(Nc1ccc(F)cc1)c1cccnc1Oc1ccccc1
3.2	O=C(CSc1ccccc1)N1CCN(c2ccccc2)CC1
3.2	COc1cc2c(Nc3ccc(Cl)cc3F)ncnc2cc1OCCn1cncn1
3.2	Cc1cc(C)c2c(n1)sc1c(N3CCN(C)CC3)ncnc12
3.18	Nc1cccc2c1C(=O)N(Cc1cccc(Cl)c1)C2=O
3.3	Oc1nc2ccccc2nc1NCc1ccccc1
3.26	O=C(NCc1ccncc1)c1ccc(Oc2ccccc2)cc1
3.25	Cc1cc(NC(=O)c2ccc(Cl)cc2)n(-c2ccccc2)n1
3.2	COCCN1CCN(CC(=O)Nc2ccc(-c3cccn4c(=O)cc(N5CCOCC5)nc34)c3sc4ccccc4c23)CC1
3.3	CN1CCOc2cc(COc3ccccc3)cnc21
3.3	O=C1CCOc2nc(C#CC3CCCCC3)ccc21
3.2	O=C1CCOc2nc(/C=C/c3ccccc3)ccc21
3.17	CC[C@H](NC(=O)c1c([S+](C)[O-])c(-c2ccccc2)nc2ccccc12)c1ccccc1 (some centres not stated)
3.17	CC[C@H](NC(=O)c1c(S(C)(=O)=O)c(-c2ccccc2)nc2ccccc12)c1ccccc1
3.25	CC[C@H](NC(=O)c1c(CS(C)(=O)=O)c(-c2ccccc2)nc2ccccc12)c1ccccc1
3.18	CC[C@H](NC(=O)c1c([S+](C)[O-])c(-c2ccccc2)nc2cc(Br)ccc12)c1ccccc1 (some centres not stated)

logD	SMILES
3.3	Oc1ccc(-c2cnc3ccccc3n2)cc1
3.2	COc1cc(F)ccc1-c1cncc(CNC(=O)C2CCC2)c1
3.25	C[C@H]1CCCN1CCc1cc2cc(-c3ccc(C#N)cc3)ccc2o1
3.3	COc1cc(N2CCN(C(N)=O)CC2)ccc1Nc1ncc(Cl)c(-c2cnc3ccccn23)n1
3.2	COc1cc(N2CCN(C(C)=O)CC2)ccc1Nc1ncc(Cl)c(-c2cnc3c(C)cccn23)n1
3.3	COc1cc(N2CCN(C(C)=O)CC2)ccc1Nc1ncc(Cl)c(-c2cnc3cc(C)ccn23)n1
3.2	COc1cc(N2CCN(C(C)=O)CC2)ccc1Nc1ncc(Cl)c(-c2cnc3c(F)cc(F)cn23)n1
3.3	CN(C(=O)Cc1ccc(O)cc1)C1CCN(CCC(c2ccccc2)c2ccccc2)CC1
3.3	Oc1ccc(-c2nc3ccc(O)cc3o2)cc1
3.25	N[C@H](CNC(=O)c1cc2c(-c3ccccc3Cc3ccccc3)cccc2[nH]1)C(=O)O
3.25	Cc1c(Sc2ccc(Cl)cc2)c2cc(Cl)ccc2n1Cc1nnn[nH]1
3.3	N#Cc1c(-c2ccc(-c3ccccc3C(F)(F)F)cc2)nc2ccncc2c1O
3.31	O=c1[nH]c(-c2ccccc2)nc2cc(Cl)ccc12
3.2	COC(=O)c1ccc(NC(=O)c2cc(OC)c(OC)c(OC)c2)cc1
3.26	Nc1cc2n[nH]c(=O)n2c2cc(-c3cccs3)ccc12
3.18	Nc1cc2n[nH]c(=O)n2c2cc(-c3ccsc3)ccc12
3.24	O=c1c(-c2ccc([N+](=O)[O-])cc2)coc2cc(O)cc(O)c12
3.19	Cc1cnc(-c2ccc(C)c(NC(=O)c3ccc(OCc4ccccn4)cc3)c2)[nH]1
3.27	CC(C)(C)OC(=O)N1CCN(c2ncc(OCc3ccc(S(C)(=O)=O)cc3)cn2)CC1
3.17	COc1ccc(Oc2cccc(CN3CCCC(n4cc(C)c(=O)[nH]c4=O)C3)c2)cc1 (configuration not stated)
3.3	CC#Cc1cncc(-c2cccc(C3(C4CC4)N=C(C)C(N)=N3)c2)c1 (configuration not stated)
3.3	O=C(N[C@H]1Cc2ccccc2N(C[C@@H](O)CO)C1=O)c1cc2cc(Cl)sc2[nH]1
3.3	C[C@@H](NC(=O)C1(N)CCN(c2ncnc3[nH]ccc23)CC1)c1ccc(Cl)cc1
3.3	CCCN(CCC)C(=O)c1cccc(C(=O)N[C@@H](Cc2ccccc2)[C@H](O)CNC2Cc3ccccc3C2)c1
3.17	CC(=O)N[C@@H](C)c1ccc(Nc2ncc3cc(-c4ccncc4)ccc3n2)cc1
3.23	COCCC(=O)N(C)c1ccc(Nc2ncc3cc(-c4ccncc4)ccc3n2)cc1

logD	SMILES
3.18	CC(=O)N[C@H](C)c1ccc(Nc2ncc3cc(-c4ccncc4)ccc3n2)cc1
3.17	C[C@@H](NC1=CC(=O)CCC1)c1ccc(Nc2ncc3cc(-c4ccncc4)ccc3n2)cc1
3.17	c1cn(-c2ccc(Oc3cc(Oc4ccc5c(c4)OCO5)ncn3)cc2)cn1
3.3	N#C/C(=C(/N)Sc1ccc(N)cc1)c1ccccc1C(F)(F)F
3.2	CCCCCC[C@H]1OC(=O)CNC(=O)[C@@H]([C@H](C)O)NC(=O)[C@H](CO)NC(=O)[C@H]([C@H](C)CC)NC(=O)[C@H](CC(C)C)N(C)C(=O)[C@@H]1C
3.24	C[C@H](NC(=O)/C=C/c1ccccc1)c1cccc(N2CCOCC2)c1
3.2	C#CCN(c1ccnc(Nc2ccc(OCC(O)CN(C)C)cc2)n1)c1cc(Cl)ccc1Cl (configuration not stated)
3.3	O=C(Nc1nc2ccccc2n1CCN1CCOCC1)c1cccc([N+](=O)[O-])c1
3.3	COc1cc(N2CCN(C)CC2)c2nc(C(=O)Nc3ccc(N4CCOCC4)cc3)cc(N(C)C)c2c1
3.27	O=C(N[C@@H]1Cc2ccccc2N(C[C@@H](O)CO)C1=O)c1cc2cc(Cl)sc2[nH]1
3.31	C[C@H](CO)Nc1nc(SCc2cccc(Cl)c2)nc2nc(N)sc12
3.27	O=C(N[C@H]1Cc2ccccc2N(C[C@H](O)CO)C1=O)c1cc2cc(Cl)sc2[nH]1
3.18	CC(C)Cn1c(=O)n(C)c(=O)c2c(C(=O)N3CC(C)(O)C3)c(Cc3ccccc3C(F)(F)F)sc21
3.2	Cc1oc(S(C)(=O)=O)cc1-c1c2c(=O)n(C)c(=O)n(CC3CC3)c2nn1Cc1ccnc2ccc(Cl)cc12
3.26	Nc1ncc(NC(=O)c2cc(NC(=O)c3cccc(C(F)(F)F)c3)ccc2Cl)cc1Cl
3.3	O=c1cc(-c2ccc(O)cc2)oc2ccc(O)cc12
3.22	O=c1oc2ccccc2cc1-c1ccccc1
3.21	O=C(COCc1ccccc1)Nc1ccc2c(c1)C(=O)C(=O)c1ccccc1-2
3.28	Clc1ccc2[nH]ccc2c1
3.27	Cc1cc(Oc2ccnc(Nc3cccc(N4CCOCC4)c3)c2)c(-c2ccccn2)nc1C
3.3	Oc1ccc(CCc2ccc(O)cc2)cc1
3.17	Cn1c(-c2ccccc2)cc2onc(-c3ccncc3)c2c1=O
3.22	CSc1nc2cc(Cl)ccc2[nH]1
3.2	O=[N+]([O-])c1ccc2c(c1)N(c1cccc[n+]1[O-])CC(C(F)F)(C(F)F)O2

SMILES	logD
Nc1nc2cc3c(cc2s1)CCN(Cc1cccc(F)c1)CC3	3.3
